In patent US20130310387A1, “Monocyclic Heteroaryl Cycloalkyldiamine Derivatives” (NOVARTIS AG, priority 2012, published 2013):

How the values were obtained:
[1] = target: Syk (2-635) (KSYK_HUMAN, P43405) (Homo sapiens, UniProt P43405); experiment: Syk enzyme assay (chip based microfluidic mobility shift assay); assay type: biochemical; details: 4 μM ATP, 4 nM Syk, 60 minutes at 30° C.
Procedure: A number of compounds of the present invention were assayed in a chip based microfluidic mobilitiy shift assay. All assays were performed in 384 well microtiter plates. Each assay plate contained 8-point serial dilutions for 40 test compounds, as well as four 8-point serial dilutions of staurosporine as reference compound, plus 16 high- and 16 low controls. Liquid handling and incubation steps were done on a Thermo CatX workstation equipped with a Innovadyne Nanodrop Express. Between pipetting steps, tips were cleaned in wash cycles using wash buffer. The assay plates were prepared by addition of 50 nl per well of compound solution in 90% DMSO. […] Kinase reactions were incubated at 30° C. for 60 minutes and subsequently terminated by addition of 16 μl per well of stop solution (100 mM HEPES pH 7.5, 5% DMSO, 0.1% Caliper coating reagent, 10 mM EDTA, and 0.015% Brij35). Plates with terminated kinase reactions were transferred to the Caliper LC3000 workstations for reading. Phosphorylated and unphosphorylated peptides were separated using the Caliper microfluidic mobility shift technology. Briefly, samples from terminated kinase reactions were applied to the chip. Analytes are transported through the chip by constant buffer flow and the migration of the substrate peptide is monitored by the fluorescence signal of its label. Phosphorylated peptide (product) and unphosphorylated peptide (substrate) are separated in an electric field by their charge/mass ratio. Kinase activities were calculated from the amounts of formed phospho-peptide. […] values were determined from percent inhibition values at different compound concentrations by non-linear regression analysis.
Test compounds were dissolved in DMSO (10 mM) and transferred into 1.4 mL flat bottom or V-shaped Matrix tubes carrying a unique 2D matrix. The stock solutions were stored at […] if not used immediately. For the test procedure the vials were defrosted and identified by a scanner whereby a working sheet was generated that guided the subsequent working steps.
Compound dilutions were made in 96 well plates. This format enabled the assay of maximally 40 individual test compounds at 8 concentrations (single points) including 4 reference compounds. The dilution protocol included the production of “pre-dilution plates”, “master plates” and “assay plates”.
96 polypropylene well plates were used as pre-dilution plates. A total of 4 pre-dilution plates were prepared including 10 test compounds each on the plate positions A1-A10, one standard compound at A11 and one DMSO control at A12. All dilution steps were done on a HamiltonSTAR robot.
30 μL of individual compound dilutions including standard compound and controls of the 4 “pre-dilution plates” were transferred into a 384 “master plate” including the following concentrations 1′810, 362, 72.5, […], 14.5, 2.9, 0.58 and 0.12 μM, respectively in 90% of DMSO.
Identical “assay plates” were then prepared by pipetting […] each of compound dilutions of the “master plates” into 384-well “assay plates” by means of a HummingBird 384-channel dispenser. These plates were used directly for the assay which was performed in a total volume of 9.05 μL. This led to a final compound concentration of 10, 2.0, 0.4, 0.08, 0.016, 0.0032, 0.00064 and 0.000128 μM and a final DMSO concentration of 0.5% in the assay.

[2] = tested on: phosphorylation of BLNK in Ramos B cells; experiment: Anti IgM-induced phosphorylation of BLNK in Ramos B cells; assay type: cell-based; details: Homo sapiens, 0.25 h, anti IgM 15 min, flow cytometry anti-BLNK (pY84)
Procedure: Anti IgM-induced phosphorylation of BLNK (BLNK=B cell linker (SLP65=SH2 domain containing leukocyte protein of 65 kDa)) in Ramos B cells: Ramos B cells in a volume of 25 μl were incubated with 25 μl of the compound solution at 2-fold the desired final concentration for 30 min. at 37° C. Then 50 μL anti IgM was added, mixed and incubated for 15 min. at 37° C. In each experiment 8-fold serial dilutions of compounds were tested. The stimulation was stopped by addition of 100 μL/well of PFA (para formaldehyde) I PBS (phosphate buffered saline) (final conc. 2% PFA) for fixation and incubated for 15 min. at 37° C., then centrifuged at 1300 rpm for 3 min and permeabilized by resuspending the cell pellet in 100 μL methanol 90% and further incubated for 30 min at 4° C. The cells were then washed and phosphoproteins were detected by flow cytometry using fluorescently labeled anti-BLNK ([…]) (BD Biosciences).

[3] = tested on: SLP-76 phosphorylation in human whole blood monocytes; experiment: FcR stimulation-induced SLP-76 phosphorylation in human whole blood monocytes; assay type: cell-based; details: Monocyte, 5 min, anti CD32 stimulation 5 min, flow cytometry, read-out: Fc Recepor stimulation induced SLP-76 phosphorylation in human whole blood monocytes, IC50
Excerpt: After lysis of erythrocytes and washings, the cell pellet was permeabilized with ice-cold methanol 90%. The permeabilized cells were washed and stained with anti CD14 (eBioscience) to detect monocytes and anti P-SLP76 ([…]) (BD Biosciences) and quantified by flow cytometry.

hERG channel = target: T1, hERG channel (Homo sapiens, UniProt Q12809); experiment: Inhibition of the hERG channel (manual patch clamp assay); assay type: cell-based; details: HEK293 cells stably transfected with hERG cDNA, whole-cell patch clamp, tail current
T1 construct: host or cells: HEK293
Excerpt: The hERG patch clamp assay was done according to standard procedures used in Genetic Toxicology and Safety Pharmacology, based on recommendations and descriptions of methods in the literature, and according to current guidelines (ICH S7B, The non clinical evaluation of the potential for delayed ventricular repolarization (QT interval prolongation) by human pharmaceuticals, 2005). The purpose of the study is to assess the effect of the test item ABC123 on tail current recorded from HEK293 cells stably transfected with hERG cDNA. The HEK293 cells, which have been stably transfected with hERG cDNA, are a model considered to be suitable for this purpose (Zhou et al., 1998). Repolarisation of cardiac ventricular myocytes is mainly due to outward potassium currents. The most important current in humans is the delayed rectifier potassium current, IK, which has both rapidly and slowly activating components (IKr and IKs) (Sanguinetti and Jurkiewicz, 1990). The human ether-a-gogo-related-gene (hERG) encodes the major protein underlying IKr. Thus, inhibition of hERG potassium channels may lead to delayed cardiac repolarisation (Sanguinetti et al., 1995). Prolongation of cardiac repolarisation is a side effect that can be associated with some drug therapies. This proarrhythmic alteration is characterised by a prolongation of the QT interval in the surface electrocardiogram and is of particular concern because it may lead to the development of polymorphic ventricular arrhythmias like torsade de pointes (for review see: Vandenberg, Walker and Campbell, 2001). […] HERG HEK (HEK293 cells stably transfected with hERG cDNA) obtained from the University of Wisconsin were used. For the experiments the cells were plated onto sterile Thermanox plastic coverslips (Nalge Nunc International) in 6-well plates. The dishes were stored in a humidified, gassed incubator. The coverslips with cells were transferred to the recording chamber and continuously superfused (at approximately 1-2 ml/min) with vehicle. The temperature of the vehicle in the bath chamber was regulated by temperature controllers to 35° C.±2.0° C. hERG currents were measured in the whole-cell patch-clamp configuration. Once a stable patch clamp configuration was achieved, recording commenced in voltage-clamp mode, with the cell initially clamped at -75 mV. hERG current was observed and recorded if a stable hERG tail current response could be induced. […] The hERG HEK293 cells were treated approximately 9 min with the test item. The following voltage protocol was applied to induce hERG currents: The step from -75 mV to +10 mV activates an outward current (i.e. current flows out of the cell) and the step from +10 mV to -40 mV produces the tail current (the tail current represents the time taken for the current to turn off). […] The leak current was recorded and subtracted by a P/3n pulse between the voltage pulses (0.1 Hz).

T1 sequence (Q12809 whole entry): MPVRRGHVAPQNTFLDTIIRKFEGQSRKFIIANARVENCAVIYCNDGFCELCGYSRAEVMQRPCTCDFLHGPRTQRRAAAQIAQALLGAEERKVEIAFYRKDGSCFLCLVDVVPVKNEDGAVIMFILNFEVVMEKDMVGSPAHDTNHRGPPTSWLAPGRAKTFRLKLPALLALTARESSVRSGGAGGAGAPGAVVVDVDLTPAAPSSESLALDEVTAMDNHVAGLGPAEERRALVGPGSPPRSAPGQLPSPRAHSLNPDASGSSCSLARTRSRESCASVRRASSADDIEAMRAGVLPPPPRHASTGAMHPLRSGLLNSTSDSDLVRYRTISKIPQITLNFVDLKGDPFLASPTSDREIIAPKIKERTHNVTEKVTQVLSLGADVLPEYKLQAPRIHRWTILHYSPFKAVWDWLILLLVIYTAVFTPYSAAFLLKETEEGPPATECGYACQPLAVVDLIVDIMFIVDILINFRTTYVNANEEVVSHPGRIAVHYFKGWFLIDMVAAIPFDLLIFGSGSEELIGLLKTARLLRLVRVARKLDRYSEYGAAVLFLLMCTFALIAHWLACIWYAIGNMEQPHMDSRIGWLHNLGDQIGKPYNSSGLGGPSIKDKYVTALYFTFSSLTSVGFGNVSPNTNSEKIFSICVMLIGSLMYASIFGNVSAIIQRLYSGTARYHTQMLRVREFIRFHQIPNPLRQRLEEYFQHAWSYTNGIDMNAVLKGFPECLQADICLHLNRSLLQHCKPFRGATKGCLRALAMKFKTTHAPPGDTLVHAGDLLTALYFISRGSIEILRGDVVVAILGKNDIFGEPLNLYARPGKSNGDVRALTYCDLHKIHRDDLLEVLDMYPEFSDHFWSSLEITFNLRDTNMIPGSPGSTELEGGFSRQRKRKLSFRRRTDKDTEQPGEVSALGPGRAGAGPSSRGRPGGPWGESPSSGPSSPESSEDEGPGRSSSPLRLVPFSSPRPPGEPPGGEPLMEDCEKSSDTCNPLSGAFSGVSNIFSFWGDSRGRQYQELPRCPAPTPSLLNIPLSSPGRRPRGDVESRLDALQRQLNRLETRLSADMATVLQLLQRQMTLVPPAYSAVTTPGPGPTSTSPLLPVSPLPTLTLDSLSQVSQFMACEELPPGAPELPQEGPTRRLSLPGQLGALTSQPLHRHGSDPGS

SMILES	IC50 [1] [nM]	IC50 [2] [nM]	IC50 [3] [nM]	inhibition at 9 min, 3 µM (hERG channel; at 3 uM) [%]	inhibition at 9 min, 10 µM (hERG channel; at 10 uM) [%]	inhibition at 9 min, 30 µM (hERG channel; at 30 uM) [%]
Cc1c[nH]c2c(Nc3nc(N[C@@H]4CCCC[C@@H]4N)nnc3C(N)=O)cc(F)cc12 [Example 1.2, 3-((1R,2S)-2-Amino-cyclohexylamino)-5-(5-fluoro-3-methyl-1H-indol-7-ylamino)-[1,2,4]triazine-6-carboxylic acid amide]	0.8	63	491	–	–	–
NC(=O)c1nnc(N[C@@H]2CCCC[C@@H]2N)nc1Nc1cccc2[nH]ncc12 [Example 2.5, 3-((1R,2S)-2-Amino-cyclohexylamino)-5-(1H-indazol-4-ylamino)-[1,2,4]triazine-6-carboxylic acid amide]	30	106	671	–	–	–
NC(=O)c1nnc(N[C@@H]2CCCC[C@@H]2N)nc1Nc1cccc2[nH]ccc12 [Example 1.4, 3-((1R,2S)-2-Amino-cyclohexylamino)-5-(1H-indol-4-ylamino)-[1,2,4]triazine-6-carboxylic acid amide]	1	14	177	–	–	–
N#Cc1c[nH]c2c(Nc3nc(N[C@@H]4CCCC[C@@H]4N)nnc3C(N)=O)cccc12 [Example 2.4, 3-((1R,2S)-2-Amino-cyclohexylamino)-5-(3-cyano-1H-indol-7-ylamino)-[1,2,4]triazine-6-carboxylic acid amide]	86	890	–	–	–	–
Cc1c[nH]c2c(Nc3nc(N[C@@H]4CCCC[C@@H]4N)nnc3C(N)=O)cccc12 [Example 1.3, 3-((1R,2S)-2-Amino-cyclohexylamino)-5-(3-methyl-1H-indol-7-ylamino)-[1,2,4]triazine-6-carboxylic acid amide]	3.5	72	447	24 ± 3	37 ± 6	74 ± 6
Cc1c[nH]c2c(Nc3nc(N[C@@H]4CCCC[C@@H]4N)cnc3C(N)=O)cccc12 [Example 4.2, 5-((1R,2S)-2-Amino-cyclohexylamino)-3-(3-methyl-1H-indol-7-ylamino)-pyrazine-2-carboxylic acid amide]	1	36	596	–	–	–
Cn1cc2c(Nc3nc(N[C@@H]4CCCC[C@@H]4N)nnc3C(N)=O)cccc2n1 [Example 2.2, 3-((1R,2S)-2-Amino-cyclohexylamino)-5-(2-methyl-2H-indazol-4-ylamino)-[1,2,4]triazine-6-carboxylic acid amide]	–	58	394	–	–	–
Cn1ncc2c(Nc3nc(N[C@@H]4CCCC[C@@H]4N)nnc3C(N)=O)cccc21 [Example 2.1, 3-((1R,2S)-2-Amino-cyclohexylamino)-5-(1-methyl-1H-indazol-4-ylamino)-[1,2,4]triazine-6-carboxylic acid amide]	12	121	509	–	–	–
NC(=O)c1nnc(N[C@@H]2CCCC[C@@H]2N)nc1Nc1cc(F)cc2cc[nH]c12 [Example 2.6, 3-((1R,2S)-2-Amino-cyclohexylamino)-5-(5-fluoro-1H-indol-7-ylamino)-[1,2,4]triazine-6-carboxylic acid amide]	4.6	37	562	–	–	–
NC(=O)c1ncc(N[C@@H]2CCCC[C@@H]2N)nc1Nc1cccc2cc[nH]c12 [Example 4.1, 5-((1R,2S)-2-Amino-cyclohexylamino)-3-(1H-indol-7-ylamino)-pyrazine-2-carboxylic acid amide]	2.7	28	311	–	–	–
Cn1ccc2c(Nc3nc(N[C@@H]4CCCC[C@@H]4N)cnc3C(N)=O)cccc21 [Example 3.1, 5-((1R,2S)-2-Amino-cyclohexylamino)-3-(1-methyl-1H-indol-4-ylamino)-pyrazine-2-carboxylic acid amide]	0.5	25	–	–	–	–
NC(=O)c1nnc(N[C@@H]2CCCC[C@@H]2N)nc1Nc1cccc2c(Cl)c[nH]c12 [Example 2.3, 3-((1R,2S)-2-Amino-cyclohexylamino)-5-(3-chloro-1H-indol-7-ylamino)-[1,2,4]triazine-6-carboxylic acid amide]	11	393	–	–	–	–
